Assays:
[1] = system: mouse long-term hematopoietic stem cells; assay: Reproducibility and concentration dependence test: 1-week culture of sorted Hoxb5-tri-mCherry mouse long-term hematopoietic stem cells, flow cytometry; type: cell-based; settings: day 7 of culture, n=2
How it was run: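 Hoxb5-tri-mCherry+ LT-HSCs (Lin−c-Kit+Sca-1+Flk2−CD34−/lo CD150+) were sorted from mouse bone marrow at 10 cells/well into StemSpan SFEM with SCF and TPO. Cells were cultured with compound for 1 week at 37°C, 5% CO2. Flow cytometry then measured KLS and mCherry+ fractions and cell counts.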

[2] = system: mouse long-term hematopoietic stem cells; assay: Combination test with UM171 on mouse long-term hematopoietic stem cells; type: cell-based; settings: for KLS-positive rate / Viable cell count / mCherry-positive rate: n=2
Protocol: The cells after classification were seeded in a 96-well plate. A cell culture medium was prepared by adding Stem Cell Factor (SCF, manufactured by PeproTech, Inc.) and Thrombopoietin (TPO, manufactured by PeproTech, Inc.) to StemSpan SFEM culture medium (manufactured by […] Technologies Inc.) and added in advance to a cell culture 96-well plate (manufactured by BD Biosciences) at 100 μL/well, and the cells sorted with the FACS Aria II cell sorter (BD Biosciences) were then seeded at 10 cells/well.
The test compounds each in the form of 10 mM DMSO solution were diluted with the cell culture medium to a final concentration of 1 μM, and added to the cells seeded after classification through medium exchange to a final volume of 200 μL/well. Thereafter, the cells were cultured in a CO2 incubator under conditions of 37° C. and 5% CO2 for 1 week.
After culture, the cells were stained with the antibodies for the surface markers c-Kit and Sca-1, Ter-119, B220, CD3, CD4, CD8a, Gr-1, and CD11b, and the ratio and post-growth cell count of a KLS fraction (c-Kit^+, Lin^−, Sca-1^+) or an mCherry-positive fraction given with use of a FACS Aria II cell sorter were analyzed by using FlowJo (BD Biosciences). The mCherry-positive fraction is a cell fraction expressing the Hoxb5 gene, and the KLS fraction is a cell fraction being c-Kit-positive, Lin-negative, and Sca-1-positive, and includes hematopoietic stem cells and multipotent progenitor cells as main components.
A DMSO solution of artemether was adjusted with the cell culture medium to three final concentrations (0.1 μM, 1 μM, 10 μM), and a DMSO solution of UM171 was adjusted with the cell culture medium to four final concentrations (0.1 μM, 0.3 μM, 1 μM, 3 μM), and cell culture was performed at n=2 by the same method as in Example 1. The cell culture and evaluation criteria were the same as those in Example 2.

[3] = UM171 0.1 μM alone (DMSO, no artemether)
[4] = UM171 0.3 μM alone (DMSO, no artemether)
[5] = UM171 1 μM alone (DMSO, no artemether)
[6] = UM171 3 μM alone (DMSO, no artemether)

Structure (SMILES)	KLS-positive rate ([1]; Table 4, compound 0.1 μM) [%]	Viable cell count ([1]; Table 4, compound 0.1 μM) [cell]	mCherry-positive rate ([1]; Table 4, compound 0.1 μM) [%]	KLS-positive rate ([1]; Table 4, compound 0.3 μM) [%]	Viable cell count ([1]; Table 4, compound 0.3 μM) [cell]	mCherry-positive rate ([1]; Table 4, compound 0.3 μM) [%]	KLS-positive rate ([1]; Table 4, compound 1 μM) [%]	Viable cell count ([1]; Table 4, compound 1 μM) [cell]	mCherry-positive rate ([1]; Table 4, compound 1 μM) [%]	KLS-positive rate ([1]; Table 4, compound 3 μM) [%]	Viable cell count ([1]; Table 4, compound 3 μM) [cell]	mCherry-positive rate ([1]; Table 4, compound 3 μM) [%]	KLS-positive rate ([1]; Table 4, compound 10 μM) [%]	Viable cell count ([1]; Table 4, compound 10 μM) [cell]	mCherry-positive rate ([1]; Table 4, compound 10 μM) [%]	further results
CCO[C@H]1O[C@@H]2O[C@@]3(C)CC[C@H]4[C@H](C)CC[C@@H]([C@H]1C)[C@@]24OO3 [Example 1-31, artemotil, reference compound]	26.5	201.5	84.9	19.7	194.0	96.3	62.3	19.5	98.3	87.5	2.5	100.0	25.0	1.5	50.0	KLS-positive rate ([1]; Table 3, compound 0.1 μM): 28.85%; Viable cell count ([1]; Table 3, compound 0.1 μM): 1073 cell; mCherry-positive rate ([1]; Table 3, compound 0.1 μM): 57.4%; KLS-positive rate ([1]; Table 3, compound 0.3 μM): 21.95%; Viable cell count ([1]; Table 3, compound 0.3 μM): 1529 cell; mCherry-positive rate ([1]; Table 3, compound 0.3 μM): 47.65%; KLS-positive rate ([1]; Table 3, compound 1 μM): 30.8%; Viable cell count ([1]; Table 3, compound 1 μM): 249 cell; mCherry-positive rate ([1]; Table 3, compound 1 μM): 92.85%; KLS-positive rate ([1]; Table 3, compound 3 μM): 66.65%; Viable cell count ([1]; Table 3, compound 3 μM): 8 cell; mCherry-positive rate ([1]; Table 3, compound 3 μM): 100%; KLS-positive rate ([1]; Table 3, compound 10 μM): 0%; Viable cell count ([1]; Table 3, compound 10 μM): 0 cell; mCherry-positive rate ([1]; Table 3, compound 10 μM): 0%
C[C@H]1[C@H](N2CCOCC2)O[C@@H]2O[C@@]3(C)CC[C@H]4[C@H](C)CC[C@@H]1[C@@]24OO3 [Example 1-13, 4-[(3R,5aS,6R,8aS,9R,10R,12R,12aR)-3,6,9-Trimethyldecahydro-12H-3,12-epoxypyrano[4,3-j][1,2]benzodioxepin-10-yl]morpholine]	22.1	201.0	24.3	14.7	605.0	2.9	21.0	136.5	6.7	0.0	0.0	0.0	0.0	0.0	0.0	
Cn1nnc(-c2ccc3c(c2)[nH]c2nc(Cc4ccccc4)nc(N[C@H]4CC[C@H](N)CC4)c23)n1 [UM171, (1r,4r)-N1-(2-benzyl-7-(2-methyl-2H-tetrazol-5-yl)-9H-pyrimido[4,5-b]indol-4-yl)cyclohexane-1,4-diamine]																KLS-positive rate [2, 3]: 41.0%; Viable cell count [2, 3]: 508.0 cell; mCherry-positive rate [2, 3]: 4.7%; KLS-positive rate [2, 4]: 71.6%; Viable cell count [2, 4]: 281.0 cell; mCherry-positive rate [2, 4]: 17.1%; KLS-positive rate [2, 5]: 98.0%; Viable cell count [2, 5]: 24.5 cell; mCherry-positive rate [2, 5]: 38.9%; KLS-positive rate [2, 6]: 82.2%; Viable cell count [2, 6]: 82.5 cell; mCherry-positive rate [2, 6]: 16.2%; Effect of culture with artemether and UM171 together on mCherry-positive and KLS-positive cell ratios ([2]; compared with any one of the substances alone): combinational effect
C[C@H]1[C@@H](O)O[C@@H]2O[C@@]3(C)CC[C@H]4[C@H](C)CC[C@@H]1[C@@]24OO3 [Example 1-29, artenimol, reference compound]	19.4	469.5	13.3	13.7	215.0	6.0	11.3	248.0	3.9	80.0	4.5	100.0	50.0	0.5	50.0	KLS-positive rate ([1]; Table 3, compound 0.1 μM): 8.92%; Viable cell count ([1]; Table 3, compound 0.1 μM): 1563 cell; mCherry-positive rate ([1]; Table 3, compound 0.1 μM): 16.9%; KLS-positive rate ([1]; Table 3, compound 0.3 μM): 18%; Viable cell count ([1]; Table 3, compound 0.3 μM): 2268 cell; mCherry-positive rate ([1]; Table 3, compound 0.3 μM): 42.4%; KLS-positive rate ([1]; Table 3, compound 1 μM): 20.05%; Viable cell count ([1]; Table 3, compound 1 μM): 666.5 cell; mCherry-positive rate ([1]; Table 3, compound 1 μM): 84.8%; KLS-positive rate ([1]; Table 3, compound 3 μM): 0%; Viable cell count ([1]; Table 3, compound 3 μM): 0 cell; mCherry-positive rate ([1]; Table 3, compound 3 μM): 0%; KLS-positive rate ([1]; Table 3, compound 10 μM): 0%; Viable cell count ([1]; Table 3, compound 10 μM): 0 cell; mCherry-positive rate ([1]; Table 3, compound 10 μM): 0%
CC(=O)OCCOC1O[C@@H]2O[C@@]3(C)CC[C@H]4[C@H](C)CC[C@@H]([C@H]1C)[C@@]24OO3 (stereo in doubt) [Example 1-26, 2-{[(3R,5aS,6R,8aS,9R,10S,12R,12aR)-3,6,9-Trimethyldecahydro-12H-3,12-epoxypyrano[4,3-j][1,2]benzodioxepin-10-yl]oxy}ethyl acetate]	56.1	13.5	80.7	68.5	48.5	95.0	55.4	20.0	96.7	26.9	43.5	100.0	28.9	30.5	100.0	
CS[C@H]1O[C@@H]2O[C@@]3(C)CC[C@H]4[C@H](C)CC[C@@H]([C@H]1C)[C@@]24OO3 [Example 1-4, (3R,5aS,6R,8aS,9R,10R,12S,12aR)-3,6,9-trimethyl-10-(methylsulfanyl)decahydro-12H-3,12-epoxypyrano[4,3-j][1,2]benzodioxepine]	17.2	353.0	8.0	37.9	103.0	44.7	31.1	181.5	85.2	30.7	87.5	100.0	61.4	7.5	90.9	
CC(=O)OCCO[C@@H]1O[C@@H]2O[C@@]3(C)CC[C@H]4[C@H](C)CC[C@@H]([C@H]1C)[C@@]24OO3 [Example 1-27, 2-{[(3R,5aS,6R,8aS,9R,10R,12R,12aR)-3,6,9-Trimethyldecahydro-12H-3,12-epoxypyrano[4,3-j][1,2]benzodioxepin-10-yl]oxy}ethyl acetate]	45.4	122.0	44.3	75.0	14.5	94.7	100.0	6.0	100.0	90.0	6.0	100.0	49.8	17.5	100.0	
C[C@H]1[C@@H](Oc2ccccc2)O[C@@H]2O[C@@]3(C)CC[C@H]4[C@H](C)CC[C@@H]1[C@@]24OO3 [Example 1-21, (3R,5aS,6R,8aS,9R,10S,12R,12aR)-3,6,9-trimethyl-10-phenoxydecahydro-12H-3,12-epoxypyrano[4,3-j][1,2]benzodioxepine]	0.0	0.0	0.0	0.0	2.0	50.0	0.0	0.5	0.0	0.0	0.5	50.0	0.0	0.5	50.0	
